“And” between values parts separate entries of the source, which are not always exact repeats. Equal entries are not always repeated. Where two headings read alike, the source gives them in different places.
Assays:
[1] = cited from earlier work
women [2] = settings: cited from earlier work; for serious adverse effects/events: general statement
[3] = system: normal menstruating women; test: Pilot study of MEL 15 mg for 5 days in 3 normal menstruating women; type: in vivo, human
Procedure: A pilot study was performed using MEL 15 mg for 5 days in 3 normal menstruating women with a control no treatment but monitored cycle and a treatment cycle. Treatment was initiated when the participant was within one day of anticipated LH surge based on the control cycle.

women [4] = settings: emergency contraception; cited from earlier work
[5] = 1.5 mg single dose, n=1359 women, Plan B One Step label
[6] = 15 mg, 12 week rheumatoid arthritis placebo controlled trial, Mobic label
[7] = oral 15 mg for 5 days in normal women

## C#C[C@]1(O)CC[C@H]2[C@@H]3CCC4=CC(=O)CC[C@@H]4[C@H]3CC[C@@]21CC [Levonorgestrel, levonorgestrel]
[1]; 1.5 mg, immunoassay methodology
  mean peak blood level: 18 ng/mL
[1]; in vivo
  absorption from the gastrointestinal tract: almost completely absorbed
  enzyme principally metabolizing: CYP3A4
  estimated serum half-life: 27.5 h
[1]; two different laboratories, liquid chromatography and tandem mass spectrometry
  mean peak serum level: 18.3 ng/mL and 10.2 ng/mL
Women [2]; [5]
  breast tenderness: 8.2%
  delay of menses >7 days: 4.5%
  dizziness: 9.6%
  fatigue: 13.3%
  headache: 10.3%
  heavy menstrual bleeding: 30.9%
  lower abdominal pain: 13.3%
  nausea: 13.7%
Women [2]; listed as LNG
  serious adverse effects/events: have not been reported

## Cc1cnc(NC(=O)C2=C(O)c3ccccc3S(=O)(=O)N2C)s1 [Meloxicam, meloxicam]
[3]
  effect on the LH surge dynamics: no effect
[1]; 15 mg daily
  time to steady state concentration: three to five
[1]; depending upon food intake
  time of peak serum levels: five or six
[1]; in vivo
  enzyme principally metabolizing: CYP2C9
Women [2]; 15 mg taken daily for 18 days
  incidence of adverse events: 33.7%
  serious adverse events: no serious adverse events reported
Women [2]; [6]
  abdominal pain: 2.6%
  dizziness: 3.8%
  dyspepsia: 4.5%
  edema: 4.5%
  headache: 8.3%
  nausea: 3.8%
  skin rash: 0.6%
Women [2]
  serious adverse effects/events: rare
Women [2]; [7]
  adverse events: 27.3%
  bloating: 4.5%
  hot flushes: 9.0%
  low abdominal pain: 13.6%

## CC(=O)O[C@]1(C(C)=O)CC[C@H]2[C@@H]3CCC4=CC(=O)CCC4=C3[C@@H](c3ccc(N(C)C)cc3)C[C@@]21C [ulipristal acetate]
Women [4]
  preventing pregnancy as interval from unprotected intercourse to use increases: superior to LNG
